Data from PubChem BioAssay (NCI).
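Following 48 hours of exposure in 96-well plates, responses at five concentrations were used to interpolate endpoints linearly. At the TGI there is no net growth.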

What was measured:
Experiment in all cases: NCI anticancer screen, dose series, 48 h
T-47D breast = tested on: T-47D breast
A498 renal = tested on: A498 renal
OVCAR-5 ovarian = tested on: OVCAR-5 ovarian
SR leukemia = tested on: SR leukemia
NCI/ADR-RES ovarian = tested on: NCI/ADR-RES ovarian
SK-OV-3 ovarian = tested on: SK-OV-3 ovarian
EKVX NSCLC = tested on: EKVX NSCLC
OVCAR-8 ovarian = tested on: OVCAR-8 ovarian
MALME-3M melanoma = tested on: MALME-3M melanoma
SK-MEL-28 melanoma = tested on: SK-MEL-28 melanoma
NCI-H460 lung = tested on: NCI-H460 lung
PC-3 prostate = tested on: PC-3 prostate
HT29 colon = tested on: HT29 colon
KM12 colon = tested on: KM12 colon
RPMI-8226 leukemia = tested on: RPMI-8226 leukemia
DU-145 prostate = tested on: DU-145 prostate
SW-620 colon = tested on: SW-620 colon
SF-295 CNS = tested on: SF-295 CNS
A549 NSCLC = tested on: A549 NSCLC
MOLT-4 leukemia = tested on: MOLT-4 leukemia
786-0 renal = tested on: 786-0 renal
SF-268 CNS = tested on: SF-268 CNS
OVCAR-4 ovarian = tested on: OVCAR-4 ovarian
TK-10 renal = tested on: TK-10 renal
RXF 393 renal = tested on: RXF 393 renal
MDA-N = tested on: MDA-N
MDA-MB-231 breast = tested on: MDA-MB-231 breast
COLO 205 colon = tested on: COLO 205 colon
OVCAR-3 ovarian = tested on: OVCAR-3 ovarian
SK-MEL-5 melanoma = tested on: SK-MEL-5 melanoma
NCI-H23 lung = tested on: NCI-H23 lung
K-562 leukemia = tested on: K-562 leukemia
HOP-62 NSCLC = tested on: HOP-62 NSCLC
HCT-15 colon = tested on: HCT-15 colon
UACC-257 melanoma = tested on: UACC-257 melanoma
NCI-H226 lung = tested on: NCI-H226 lung
LOX IMVI melanoma = tested on: LOX IMVI melanoma
MCF7 breast = tested on: MCF7 breast
NCI-H522 lung = tested on: NCI-H522 lung
UO-31 renal = tested on: UO-31 renal
U251 CNS = tested on: U251 CNS
SK-MEL-2 melanoma = tested on: SK-MEL-2 melanoma
M14 melanoma = tested on: M14 melanoma
SF-539 CNS = tested on: SF-539 CNS
HCC-2998 colon = tested on: HCC-2998 colon
ACHN renal = tested on: ACHN renal
SNB-75 CNS = tested on: SNB-75 CNS
HOP-92 NSCLC = tested on: HOP-92 NSCLC
CAKI-1 renal = tested on: CAKI-1 renal
HS 578T breast = tested on: HS 578T breast
HL-60(TB) leukemia = tested on: HL-60(TB) leukemia
IGROV1 ovarian = tested on: IGROV1 ovarian
SNB-19 CNS = tested on: SNB-19 CNS
UACC-62 melanoma = tested on: UACC-62 melanoma
CCRF-CEM leukemia = tested on: CCRF-CEM leukemia
MDA-MB-435 = tested on: MDA-MB-435
HCT-116 colon = tested on: HCT-116 colon
SN12C renal = tested on: SN12C renal

Structure (SMILES): CCCC[C@@H](C)/C=C1\CN2CCC[C@H]2[C@@](C)(O)[C@@H]1O
- TGI (T-47D breast): > 100 µM
- TGI (A498 renal): > 100 µM
- TGI (OVCAR-5 ovarian): > 100 µM
- TGI (SR leukemia): > 100 µM
- TGI (NCI/ADR-RES ovarian): > 100 µM
- TGI (SK-OV-3 ovarian): > 100 µM
- TGI (EKVX NSCLC): > 100 µM
- TGI (OVCAR-8 ovarian): > 100 µM
- TGI (MALME-3M melanoma): > 100 µM
- TGI (SK-MEL-28 melanoma): > 100 µM
- TGI (NCI-H460 lung): > 100 µM
- TGI (PC-3 prostate): > 100 µM
- TGI (HT29 colon): > 100 µM
- TGI (KM12 colon): > 100 µM
- TGI (RPMI-8226 leukemia): > 100 µM
- TGI (DU-145 prostate): 60.4 µM
- TGI (SW-620 colon): > 100 µM
- TGI (SF-295 CNS): > 100 µM
- TGI (A549 NSCLC): > 100 µM
- TGI (MOLT-4 leukemia): > 100 µM
- TGI (786-0 renal): > 100 µM
- TGI (SF-268 CNS): > 100 µM
- TGI (OVCAR-4 ovarian): > 100 µM
- TGI (TK-10 renal): > 100 µM
- TGI (RXF 393 renal): 38.1 µM
- TGI (MDA-N): > 100 µM
- TGI (MDA-MB-231 breast): > 100 µM
- TGI (COLO 205 colon): > 100 µM
- TGI (OVCAR-3 ovarian): > 100 µM
- TGI (SK-MEL-5 melanoma): > 100 µM
- TGI (NCI-H23 lung): > 100 µM
- TGI (K-562 leukemia): > 100 µM
- TGI (HOP-62 NSCLC): > 100 µM
- TGI (HCT-15 colon): > 100 µM
- TGI (UACC-257 melanoma): > 100 µM
- TGI (NCI-H226 lung): > 100 µM
- TGI (LOX IMVI melanoma): > 100 µM
- TGI (MCF7 breast): > 100 µM
- TGI (NCI-H522 lung): > 100 µM
- TGI (UO-31 renal): > 100 µM
- TGI (U251 CNS): > 100 µM
- TGI (SK-MEL-2 melanoma): > 100 µM
- TGI (M14 melanoma): > 100 µM
- TGI (SF-539 CNS): > 100 µM
- TGI (HCC-2998 colon): > 100 µM
- TGI (ACHN renal): > 100 µM
- TGI (SNB-75 CNS): 85.1 µM
- TGI (HOP-92 NSCLC): 73.6 µM
- TGI (CAKI-1 renal): 71.2 µM
- TGI (HS 578T breast): > 100 µM
- TGI (HL-60(TB) leukemia): 11 µM
- TGI (IGROV1 ovarian): > 100 µM
- TGI (SNB-19 CNS): > 100 µM
- TGI (UACC-62 melanoma): > 100 µM
- TGI (CCRF-CEM leukemia): > 100 µM
- TGI (MDA-MB-435): > 100 µM

Structure (SMILES): CC(=O)c1sc2c(c1OC(=O)c1ccc(Cl)cc1Cl)c(=O)n(-c1ccccc1)c(=S)n2-c1ccccc1
- TGI (T-47D breast): 82.3 µM
- TGI (A498 renal): 1.4 µM
- TGI (OVCAR-5 ovarian): 8.96 µM
- TGI (SR leukemia): > 100 µM
- TGI (NCI/ADR-RES ovarian): 20.2 µM
- TGI (SK-OV-3 ovarian): 7.77 µM
- TGI (EKVX NSCLC): 49.7 µM
- TGI (OVCAR-8 ovarian): 5.73 µM
- TGI (HCT-116 colon): 37.5 µM
- TGI (MALME-3M melanoma): 0.841 µM
- TGI (SK-MEL-28 melanoma): > 48.1 µM
- TGI (NCI-H460 lung): 14.3 µM
- TGI (PC-3 prostate): 13.7 µM
- TGI (HT29 colon): 3.01 µM
- TGI (KM12 colon): 27 µM
- TGI (RPMI-8226 leukemia): 0.64 µM
- TGI (DU-145 prostate): > 100 µM
- TGI (SW-620 colon): 48.2 µM
- TGI (SF-295 CNS): 6.51 µM
- TGI (A549 NSCLC): > 90 µM
- TGI (MOLT-4 leukemia): 2.35 µM
- TGI (786-0 renal): 29.6 µM
- TGI (SF-268 CNS): 13.7 µM
- TGI (OVCAR-4 ovarian): 54 µM
- TGI (TK-10 renal): 58.2 µM
- TGI (MDA-N): 20 µM
- TGI (MDA-MB-231 breast): 11.7 µM
- TGI (COLO 205 colon): 15 µM
- TGI (OVCAR-3 ovarian): 39 µM
- TGI (SK-MEL-5 melanoma): 7.17 µM
- TGI (NCI-H23 lung): 35.3 µM
- TGI (K-562 leukemia): 46.1 µM
- TGI (HOP-62 NSCLC): 16.7 µM
- TGI (SN12C renal): 4.35 µM
- TGI (HCT-15 colon): 11.2 µM
- TGI (UACC-257 melanoma): 30 µM
- TGI (NCI-H226 lung): 2.53 µM
- TGI (LOX IMVI melanoma): 1.19 µM
- TGI (MCF7 breast): 47.1 µM
- TGI (NCI-H522 lung): 15.1 µM
- TGI (UO-31 renal): 4.48 µM
- TGI (U251 CNS): 25.6 µM
- TGI (SK-MEL-2 melanoma): 1.41 µM
- TGI (M14 melanoma): 2.35 µM
- TGI (SF-539 CNS): 0.908 µM
- TGI (HCC-2998 colon): 22.2 µM
- TGI (ACHN renal): 5.21 µM
- TGI (SNB-75 CNS): 4.19 µM
- TGI (HOP-92 NSCLC): 16.5 µM
- TGI (CAKI-1 renal): 25.7 µM
- TGI (HS 578T breast): 1.4 µM
- TGI (HL-60(TB) leukemia): 18.9 µM
- TGI (IGROV1 ovarian): 36.1 µM
- TGI (SNB-19 CNS): 14.2 µM
- TGI (UACC-62 melanoma): 29.2 µM
- TGI (CCRF-CEM leukemia): 4.99 µM
- TGI (MDA-MB-435): 31.9 µM
